Measured values: ChEMBL document CHEMBL1146839, “Orally active amino functionalized antimalarial 1,2,4-trioxanes” (Bioorg Med Chem Lett, 2004)
Calls of active or inactive are those of the source. The calls are words filed in the database; no cut-off is given here.

Key:
Mus musculus [1] = assay: In vivo antimalarial activity against Plasmodium yoelii in mice (Mus musculus) at 96 mg/kg/day orally on day 4 expressed as percent suppression; type: functional; conditions: route oral
[2] = Number of survivals against Plasmodium yoelii in mice (Mus musculus) (out of 5) at 96 mg/kg/day intramuscularly on day 28; type: organism-based; design: route intramuscular; conditions: in vivo, im
Mus musculus [3] = assay: In vivo antimalarial activity against Plasmodium yoelii in mice (Mus musculus) at 96 mg/kg/day intramuscularly on day 4 expressed as percent suppression; type: functional; conditions: route intramuscular
Mus musculus [4] = assay: Mean survival time against Plasmodium yoelii in mice (Mus musculus) which died during 28-day observation period at 96 mg/kg/day orally; type: functional; conditions: route oral
[5] = Number of survivals against Plasmodium yoelii in mice (Mus musculus) (out of 5) at 96 mg/kg/day orally on day 28; type: organism-based; design: route oral; conditions: in vivo, po
Mus musculus [6] = assay: Mean survival time against Plasmodium yoelii in mice (Mus musculus) which died during 28-day observation period at 96 mg/kg/day intramuscularly; type: functional; conditions: route intramuscular
Mus musculus [7] = assay: In vivo antimalarial activity against Plasmodium yoelii in mice (Mus musculus) at 96 mg/kg/day intramuscularly on day 4 expressed as percent suppression; No suppression; type: functional, organism-based
[8] = Number of survivals against Plasmodium yoelii in mice (Mus musculus) (out of 5) at 48 mg/kg/day orally on day 28; type: organism-based; design: route oral; conditions: in vivo, po
[9] = Number of survivals against Plasmodium yoelii in mice (Mus musculus) (out of 5) at 24 mg/kg/day orally on day 28; type: organism-based; design: route oral; conditions: in vivo, po
Mus musculus [10] = assay: In vivo antimalarial activity against Plasmodium yoelii in mice (Mus musculus) at 48 mg/kg/day orally on day 4 expressed as percent suppression; type: functional; conditions: route oral
Mus musculus [11] = assay: Mean survival time against Plasmodium yoelii in mice (Mus musculus) which died during 28-day observation period at 24 mg/kg/day orally; type: functional; conditions: route oral
Mus musculus [12] = assay: Percent suppression against Plasmodium yoelii in mice (Mus musculus) at 96 mg/kg/day intramuscularly on day 4; type: functional; conditions: route intramuscular
Mus musculus [13] = assay: Percent suppression against Plasmodium yoelii in mice (Mus musculus) at 24 mg/kg/day orally on day 4; type: functional; conditions: route oral
Mus musculus [14] = assay: Mean survival time against Plasmodium yoelii in mice (Mus musculus) which died during 28-day observation period at 48 mg/kg/day orally; type: functional; conditions: route oral
Mus musculus [15] = assay: In vivo antimalarial activity against Plasmodium yoelii in mice (Mus musculus) at 24 mg/kg/day orally on day 4 expressed as percent suppression; type: functional; conditions: route oral

Row | Compound | Suppression (Mus musculus [1]) [%] | No. of survivals [2] | Suppression (Mus musculus [3]) [%] | MST (Mus musculus [4]) [days] | No. of survivals [5] | MST (Mus musculus [6]) [days] | Suppression (Mus musculus [7]) | No. of survivals [8] | No. of survivals [9] | Suppression (Mus musculus [10]) [%] | MST (Mus musculus [11]) [days] | Suppression (Mus musculus [12]) [%] | Suppression (Mus musculus [13]) [%] | MST (Mus musculus [14]) [days] | Suppression (Mus musculus [15]) [%]
1 | C=C(c1ccccc1)C1COC2(CCC(Nc3ccc(NC(C)=O)cc3)CC2)OO1 (stereo not given) | 77 | 0 | 98 | 9.8 | 0 | 9 | – | – | – | – | – | – | – | – | –
2 | C=C(c1ccc(-c2ccccc2)cc1)C1COC2(CCC(Nc3cccc4ccccc34)CC2)OO1 (stereo not given) | 100 | 0 | – | 14.8 | 0 | 6.6 | inactive | – | – | – | – | – | – | – | –
3 | C=C(c1ccccc1)C1COC2(CCC(=O)CC2)OO1 (stereo not given) | 7 | 0 | 99 | 7.2 | 0 | 11.6 | – | – | – | – | – | – | – | – | –
4 | C=C(c1ccccc1)C1COC2(CCC(Nc3cc(Cl)cc(Cl)c3)CC2)OO1 (stereo not given) | 100 | 0 | 62 | 16.5 | 2 | 12.4 | – | – | – | – | – | – | – | – | –
5 | C=C(c1ccc(-c2ccccc2)cc1)C1COC2(CCC(Nc3ccccc3)CC2)OO1 (stereo not given) | 100 | 0 | – | >28 | 5 | 10.7 | – | 3 | 0 | 100 | 13.4 | 72 | 98 | 14.5 | –
6 | C=C(c1ccc(-c2ccccc2)cc1)C1COC2(CCC(=O)CC2)OO1 (stereo not given) | 92 | 1 | 100 | 10.2 | 0 | 17.7 | – | – | – | – | – | – | – | – | –
7 | CCO[C@H]1O[C@@H]2O[C@@]3(C)CC[C@H]4[C@H](C)CC[C@@H]([C@H]1C)[C@@]24OO3 [ARTEMOTIL] | – | – | – | – | – | – | – | 5 | 1 | 100 | 17.75 | – | – | >28 | 100
8 | C=C(c1ccc(-c2ccccc2)cc1)C1COC2(CCC(Nc3ccc(NC(C)=O)cc3)CC2)OO1 (stereo not given) | 49 | 0 | 90 | 8.4 | 0 | 11.6 | – | – | – | – | – | – | – | – | –
9 | CCN(CC)CCCC(C)Nc1ccnc2cc(Cl)ccc12 (stereo not given) [CHLOROQUINE] | – | – | – | – | – | – | – | 2 | 0 | 100 | 14.8 | – | – | 17.6 | 100
10 | C=C(c1ccccc1)C1COC2(CCC(Nc3ccc(OC)cc3)CC2)OO1 (stereo not given) | 93 | 0 | 63 | 12.4 | 0 | 10.8 | – | – | – | – | – | – | – | – | –
11 | C=C(c1ccccc1)C1COC2(CCC(Nc3ccccc3)CC2)OO1 (stereo not given) | 95 | 0 | 60 | 12.2 | 0 | 13.4 | – | – | – | – | – | – | – | – | –
12 | C=C(c1ccccc1)C1COC2(CCC(Nc3cccc4ccccc34)CC2)OO1 (stereo not given) | 100 | 0 | 44 | 19.5 | 0 | 9.2 | – | – | – | – | – | – | – | – | –
13 | C=C(c1ccc(-c2ccccc2)cc1)C1COC2(CCC(Nc3cc(Cl)cc(Cl)c3)CC2)OO1 (stereo not given) | 65 | 0 | 46 | 10.2 | 0 | 7 | – | – | – | – | – | – | – | – | –
14 | C=C(c1ccc(-c2ccccc2)cc1)C1COC2(CCC(Nc3ccc(OC)cc3)CC2)OO1 (stereo not given) | 94 | 0 | 57 | 11.1 | 0 | 8.4 | – | – | – | – | – | – | – | – | –
